Data as given in ChEMBL document CHEMBL5303304, “EUbOPEN Chemogenomics Library - IncuCyte” (2023).

Experiments:
Assay type in all cases: toxicity, cell-based
[1] = test system: U2OS; assay: Incucyte cell viability with U2OS; conditions: human, 10 µM, compound concentration 10 uM
[2] = test system: HEK-293T; assay: Incucyte cell viability with HEK293T; conditions: human, 10 µM, compound concentration 10 uM
[3] = test system: Fibroblast; assay: Incucyte cell viability with human fibroblast; conditions: 10 µM, compound concentration 10 uM
Also: unitless GR value; below 1 slowed growth and below 0 cell loss.

| SMILES | Growth Rate ([1]; 12 h, replicate number 1) | Growth Rate ([1]; 18 h, replicate number 1) | Growth Rate ([2]; 6 h, replicate number 1) | Growth Rate ([2]; 6 h, replicate number 2) | Growth Rate ([2]; 12 h, replicate number 2) | Growth Rate ([2]; 18 h, replicate number 1) | Growth Rate ([2]; 18 h, replicate number 2) | Growth Rate ([2]; 24 h, replicate number 1) | Growth Rate ([2]; 24 h, replicate number 2) | Growth Rate ([3]; 6 h, replicate number 2) | Growth Rate ([3]; 18 h, replicate number 2) | Growth Rate ([3]; 24 h, replicate number 2) | Growth Rate ([1]; 24 h, replicate number 1) | Growth Rate ([3]; 12 h, replicate number 1) | Growth Rate ([3]; 12 h, replicate number 2) | Growth Rate ([3]; 18 h, replicate number 1) | Growth Rate ([3]; 24 h, replicate number 1) | Growth Rate ([1]; 0 h, replicate number 1) | Growth Rate ([1]; 18 h, replicate number 2) | Growth Rate ([1]; 24 h, replicate number 2) | also measured |
| --- | --- | --- | --- | --- | --- | --- | --- | --- | --- | --- | --- | --- | --- | --- | --- | --- | --- | --- | --- | --- | --- |
| COc1c(-c2cn(C3CCC(=O)NC3=O)nn2)csc1C(=O)N1CCCC1 (configuration not stated) | 0.85 | 0.92 | 0.29 | 0.71 | 0.89 | 0.73 | 0.9 | 0.9 | 1 | 0.73 | 0.92 | 0.97 | – | – | – | – | – | – | – | – | Growth Rate ([1]; 6 h, replicate number 1): 0.89; Growth Rate ([2]; 0 h, replicate number 2): 0.78; Growth Rate ([2]; 12 h, replicate number 1): 0.77; Growth Rate ([3]; 0 h, replicate number 1): -1 |
| O=C(NCCS(=O)(=O)c1ccc(C(F)(F)F)cn1)c1ccc(Cl)cc1 | 0.98 | 0.96 | – | 0.83 | 0.73 | – | 0.77 | – | 0.79 | – | 0.99 | 0.73 | 0.93 | 0.61 | 0.53 | 0.55 | 0.9 | – | – | – | Growth Rate ([2]; 0 h, replicate number 1): -0.16; Growth Rate ([3]; 0 h, replicate number 2): -0.73 |
| COc1cc(-c2cncc(-c3cnn(C4CCNCC4)c3)c2)cc(OC)c1OC | – | – | 0.84 | 0.78 | 0.82 | – | 0.73 | – | 0.77 | 0.74 | – | 0.9 | – | – | 0.97 | – | 0.86 | -1 | 0.99 | 0.94 | Growth Rate ([1]; 6 h, replicate number 2): 0.55; Growth Rate ([3]; 0 h, replicate number 1): 0.47 |
| CCCCNc1ncc2c(-c3ccc(CN4CCN(C)CC4)cc3)cn([C@H]3CC[C@H](O)CC3)c2n1 | – | 0.13 | -0.33 | -0.21 | -0.55 | -0.43 | -0.41 | -0.3 | -0.28 | – | -0.25 | -0.33 | -0.14 | 0.6 | 0.3 | -0.08 | -0.18 | – | -0.13 | -0.3 | Growth Rate ([1]; 0 h, replicate number 2): 0.17; Growth Rate ([1]; 12 h, replicate number 2): 0.4; Growth Rate ([2]; 0 h, replicate number 2): 0.42; Growth Rate ([2]; 12 h, replicate number 1): -0.54; Growth Rate ([3]; 0 h, replicate number 2): -0.9 |
| COc1ccc(COc2ccc(Cc3cnc(N)nc3N)cc2OC)cc1 [GW632580X] | 0.7 | 0.63 | 0.7 | – | 0.92 | 0.93 | 0.87 | 0.91 | 0.92 | 0.45 | 0.48 | 0.57 | 0.89 | 0.73 | 0.22 | 0.86 | 0.78 | – | – | – | Growth Rate ([1]; 0 h, replicate number 2): 0.63; Growth Rate ([1]; 6 h, replicate number 1): 0.52; Growth Rate ([2]; 12 h, replicate number 1): 0.83; Growth Rate ([3]; 0 h, replicate number 2): -0.61; Growth Rate ([3]; 6 h, replicate number 1): 0.69 |
| C#Cc1cnc2[nH]cc(-c3cccc4c3CCN4C(=O)[C@@H]3CCCN3C#N)c2c1 | -0.58 | -0.68 | -0.95 | -0.98 | -0.78 | -0.46 | -0.5 | -0.29 | -0.34 | -1 | -0.58 | -0.41 | -0.58 | -0.63 | -0.69 | -0.48 | -0.36 | 0.82 | -0.52 | -0.56 | Growth Rate ([1]; 6 h, replicate number 1): 0.06; Growth Rate ([1]; 6 h, replicate number 2): 0.45; Growth Rate ([1]; 12 h, replicate number 2): -0.19; Growth Rate ([2]; 12 h, replicate number 1): -0.75; Growth Rate ([3]; 0 h, replicate number 1): -1; Growth Rate ([3]; 6 h, replicate number 1): -0.83 |
| c1cnc2cc3c(cc2n1)[C@@H]1CNC[C@H]3C1 [VARENICLINE] | 0.98 | 0.91 | 0.65 | 0.78 | 0.87 | – | 0.95 | 0.99 | – | – | – | – | 0.92 | – | – | -0.31 | – | 0.97 | 1 | 0.9 | Growth Rate ([1]; 6 h, replicate number 2): 0.65; Growth Rate ([1]; 12 h, replicate number 2): 0.82; Growth Rate ([2]; 0 h, replicate number 2): 0.72; Growth Rate ([3]; 0 h, replicate number 1): 0.28 |
| C=CC(=O)Nc1ccc2[nH]c(=O)n(C3CCN(Cc4ccc(-c5ccc6c(c5)NC(=O)CO6)cc4)CC3)c2c1 [RL2578] | 0.76 | 0.75 | 0.24 | 0.23 | 0.43 | 0.28 | 0.45 | 0.26 | 0.42 | 0.95 | 0.52 | 0.51 | 0.93 | 0.87 | 0.71 | 0.72 | 0.45 | 0.69 | 0.78 | 0.62 | Growth Rate ([1]; 6 h, replicate number 1): 0.83; Growth Rate ([1]; 12 h, replicate number 2): 0.91; Growth Rate ([2]; 12 h, replicate number 1): 0.24; Growth Rate ([3]; 0 h, replicate number 1): -1; Growth Rate ([3]; 6 h, replicate number 1): 0.84 |
| Cl.NCC(O)c1ccc(O)cc1 (configuration not stated) [OCTOPAMINE HYDROCHLORIDE] | 0.99 | 0.83 | 0.45 | 0.94 | – | – | – | – | – | -0.67 | – | – | 0.97 | – | 0.8 | -0.19 | – | 0.94 | 0.87 | 0.95 | Growth Rate ([1]; 0 h, replicate number 2): -0.87; Growth Rate ([1]; 6 h, replicate number 1): 0.64; Growth Rate ([1]; 6 h, replicate number 2): 0.65; Growth Rate ([1]; 12 h, replicate number 2): 0.92; Growth Rate ([2]; 0 h, replicate number 1): 0.76; Growth Rate ([2]; 0 h, replicate number 2): 0.66 |
| CN1CCN(C(=O)c2ccc3cc2OCCOCCNc2ccn4ncc-3c4n2)CC1 | – | 0.81 | 0.93 | 0.6 | 0.93 | 0.93 | 0.85 | 0.92 | 0.89 | 0.92 | – | – | – | – | – | – | – | -0.07 | – | – | Growth Rate ([3]; 0 h, replicate number 2): 0.92; Growth Rate ([3]; 6 h, replicate number 1): 0.73 |
| N#Cc1ccc(COc2ccc(Br)cc2CNCCO)cn1.O=CO | 1 | – | – | – | – | 1 | – | – | – | 0.73 | 0.6 | 0.89 | – | 0.85 | 0.87 | – | – | – | – | – | Growth Rate ([2]; 0 h, replicate number 2): 0.83 |
